Patent US20030087844A1, “Ribavirin syrup formulations” (SCHERING CORPORATION, priority 2001, published 2003)

Assay: Storage stability testing of the syrup at ICH conditions, HPLC assay of ribavirin and degradation products
Assay type: physicochemical
From the text: The stability of a syrup formulation of the present invention was compared to conventional liquid formulations that contain ribavirin that are marketed by ICN. Degradation of syrup formulations containing ribavirin is observed during storage stability testing, as is evidenced by declining concentrations of the active ingredient and a concomitant formation of degradates. The most frequent degradation product that has been identified is the carboxylic acid product of ribavirin. Based upon these tests, it is believed that the syrup formulations of the present invention have a shelf life of greater than two years.
This analysis was performed via HPLC methods that are known to one of skill in the art. Stability data was also performed on the formulation of the present invention at 18 months after formulation, and measured by HPLC techniques as known by one of skill in the art as set forth in Table 2 below.
Only results that exceed the limit of quantitation (LOQ) were included in the attached tables. The LOQ of each degradation product is 0.05%. Synthesis-related impurities of ribavirin, the α-anomer and 5′-acetylribavirin, were not degradation products and are not monitored in the drug product. Each degradation product result was rounded to one significant figure according to the rounding convention described in the USP. The results for total degradation products that were derived from the sum of individual degradation products that contain one more significant figure than those shown in the data tables and then rounded to one decimal place.

Measured: ribavirin degradation after storage

NC(=O)c1ncn([C@@H]2O[C@H](CO)[C@@H](O)[C@H]2O)n1 [Ribavirin, 1β-D ribofuranosyl-1H-1,2,4 triazole 3-carboxamide]
did not degrade significantly: 25° C./60% RH, up to 12 months | 30° C./60% RH, up to 12 months | ICH accelerated condition 40° C./75% RH, up to 6 months
